From patent US4232150A, “Oligosaccharide precursors to substituted O-α-D and O-β-D-multigalactopyranosyl and glucopyranosyl 1→4 and 1→6 galactopyranosyl 1→6α-D-glucopyranoses” (American Cyanamid Company, priority 1979, dated 1980) come the findings set out here.

The structures appear in SMILES notation. Structures can show the parent of a compound that is named as a salt.

Conditions in all cases: serial twofold dilution assay; higher well number indicates higher activity
For assay [1], the system named is shunt pathway activated by cobra venom factor. Briefly: Test Code 036 (C-Shunt inhibitor), lysis of human erythrocytes by cobra venom factor. The assay is classed as cell-based. From the text: (§1) An active inhibitor protects C2 from C1 and C4; (ii) Test Cod3 035 (3-C9 inhibitor)--This test determines the ability of the late components of human complement (C3-C9) to lyse EAC 142 in the presence of appropriate dilutions of the test compound. An active inhibitor protects EAC 142 from lysis by human C3-C9; (iii) Test Code 036 (C-Shunt inhibitor)--In this test human erythrocytes rendered fragile are lysed in autologous serum via the shunt pathway activated by cobra venom factor in the presence of appropriate dilutions of the test compound. Inhibition of the shunt pathway results in failure of lysis; (iv) Forssman Vasculitis Test--Here, the well known complement dependent lesion, Forssman vasculitis, is produced in guinea pigs by intradermal injection of rabbit anti-Forssman antiserum. The lesion is measured in terms of diameter, edema and hemorrhage and the extent to which a combined index of these is inhibited by prior intraperitoneal injection of the test compound at 200 mg/kg is then reported, unless otherwise stated; (v) Forssman Shock Test--Lethal shock is produced in guinea pigs by an i.v. injection of anti-Forssman antiserum and the harmonic mean death time of treated guinea pigs is compared with that of simultaneous controls; (vi) Complement Level Reduction Test--In this test, the above dosed guinea pigs, or others, are bled for serum and the complement level is determined in undiluted serum by the capillary tube method of U.S. Pat. No. 3,876,376 and compared to undosed control guinea pigs; (vii) Cap 50 Test--Here, appropriate amounts of the test compound are added to a pool of guinea pig serum in vitro, after which the undiluted serum capillary tube assay referred to above is run. The concentration of compound inhibiting 50% is reported;
(§2) **Activity in wells, a serial dilution assay; higher well number indicate
(§3) higher activity. The serial dilutions are twofold

Assay [2] concerns late components of human complement (C3-C9). Briefly: Test Code 035 (C3-C9 inhibitor; C-Late), lysis of EAC 142. The assay is classed as cell-based.
Source text: as §1, §2, §3

Another assay has as its target T1, activated human C1 (Homo sapiens, UniProt P09871).
T1 construct: functional test of fluid-phase human C2 destruction in presence of C4
Briefly: Test Code 026 (C1 inhibitor). It counts as biochemical.
Source text: as §1, §2, §3

T1 sequence (P09871 16-688): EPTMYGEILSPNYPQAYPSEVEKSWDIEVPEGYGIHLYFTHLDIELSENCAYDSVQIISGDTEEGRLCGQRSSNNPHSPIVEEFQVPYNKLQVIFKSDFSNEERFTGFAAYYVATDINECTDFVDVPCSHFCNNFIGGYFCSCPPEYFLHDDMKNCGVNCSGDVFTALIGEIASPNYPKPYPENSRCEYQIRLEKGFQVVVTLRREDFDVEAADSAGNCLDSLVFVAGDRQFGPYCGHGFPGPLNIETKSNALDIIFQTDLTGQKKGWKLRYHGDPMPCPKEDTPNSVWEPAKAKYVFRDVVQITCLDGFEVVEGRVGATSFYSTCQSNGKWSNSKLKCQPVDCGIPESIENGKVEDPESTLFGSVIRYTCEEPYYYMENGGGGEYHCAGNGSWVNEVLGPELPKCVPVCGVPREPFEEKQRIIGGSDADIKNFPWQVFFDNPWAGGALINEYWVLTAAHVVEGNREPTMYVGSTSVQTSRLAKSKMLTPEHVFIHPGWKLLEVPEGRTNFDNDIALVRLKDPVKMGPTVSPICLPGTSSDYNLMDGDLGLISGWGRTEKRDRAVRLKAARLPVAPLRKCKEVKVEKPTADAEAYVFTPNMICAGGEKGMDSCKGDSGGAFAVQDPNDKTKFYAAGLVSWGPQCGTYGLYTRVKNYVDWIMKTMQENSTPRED
T1 sequence (P00736 18-705 partner): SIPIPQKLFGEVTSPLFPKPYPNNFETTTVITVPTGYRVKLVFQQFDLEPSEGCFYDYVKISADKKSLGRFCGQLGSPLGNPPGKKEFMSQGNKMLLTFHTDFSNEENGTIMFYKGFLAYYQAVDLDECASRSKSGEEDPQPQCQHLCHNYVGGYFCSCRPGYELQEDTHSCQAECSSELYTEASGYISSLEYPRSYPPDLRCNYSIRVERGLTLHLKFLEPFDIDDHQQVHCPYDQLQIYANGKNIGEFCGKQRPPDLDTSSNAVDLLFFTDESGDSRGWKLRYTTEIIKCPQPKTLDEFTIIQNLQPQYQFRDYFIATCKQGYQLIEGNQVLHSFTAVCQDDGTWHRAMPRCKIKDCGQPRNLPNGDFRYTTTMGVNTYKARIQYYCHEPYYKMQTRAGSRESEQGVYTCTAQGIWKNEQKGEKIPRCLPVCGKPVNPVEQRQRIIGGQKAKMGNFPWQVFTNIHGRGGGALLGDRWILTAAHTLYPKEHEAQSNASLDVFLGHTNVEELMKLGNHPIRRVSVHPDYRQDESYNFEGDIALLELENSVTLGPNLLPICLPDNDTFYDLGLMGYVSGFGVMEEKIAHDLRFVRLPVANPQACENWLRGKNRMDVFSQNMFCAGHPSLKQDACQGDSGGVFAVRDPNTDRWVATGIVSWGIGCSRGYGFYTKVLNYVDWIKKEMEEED
T1 sequence (P02745 23-245 partner): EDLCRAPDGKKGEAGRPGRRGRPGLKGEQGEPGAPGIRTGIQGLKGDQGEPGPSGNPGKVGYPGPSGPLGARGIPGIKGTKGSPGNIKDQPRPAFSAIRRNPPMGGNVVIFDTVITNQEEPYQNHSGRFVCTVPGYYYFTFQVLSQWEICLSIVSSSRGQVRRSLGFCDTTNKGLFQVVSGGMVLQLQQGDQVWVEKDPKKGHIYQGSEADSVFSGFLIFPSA
T1 sequence (P02746 28-253 partner): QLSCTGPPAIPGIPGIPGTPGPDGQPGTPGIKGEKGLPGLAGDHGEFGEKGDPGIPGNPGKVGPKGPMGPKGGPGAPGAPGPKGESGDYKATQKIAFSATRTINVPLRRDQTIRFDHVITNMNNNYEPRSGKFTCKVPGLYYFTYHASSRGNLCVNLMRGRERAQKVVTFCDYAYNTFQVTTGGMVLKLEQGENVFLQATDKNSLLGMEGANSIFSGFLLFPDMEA
T1 sequence (P02747 29-245 partner): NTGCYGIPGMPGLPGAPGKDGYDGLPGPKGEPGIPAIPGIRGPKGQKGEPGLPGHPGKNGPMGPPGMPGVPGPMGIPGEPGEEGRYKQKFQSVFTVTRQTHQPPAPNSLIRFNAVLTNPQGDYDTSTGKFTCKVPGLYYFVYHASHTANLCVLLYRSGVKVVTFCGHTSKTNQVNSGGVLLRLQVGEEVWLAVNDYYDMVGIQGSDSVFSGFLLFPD

As for `O=S(=O)(O)OC[C@H]1O[C@@H](OC[C@H]2O[C@H](OC[C@H]3O[C@H](OS(=O)(=O)O)[C@H](OS(=O)(=O)O)[C@@H](OS(=O)(=O)O)[C@@H]3OS(=O)(=O)O)[C@H](OS(=O)(=O)O)[C@@H](OS(=O)(=O)O)[C@H]2OS(=O)(=O)O)[C@H](OS(=O)(=O)O)[C@@H](OS(=O)(=O)O)[C@@H]1O[C@H]1O[C@H](COS(=O)(=O)O)[C@@H](O[C@H]2O[C@H](COS(=O)(=O)O)[C@@H](OS(=O)(=O)O)[C@H](OS(=O)(=O)O)[C@H]2OS(=O)(=O)O)[C@H](OS(=O)(=O)O)[C@H]1OS(=O)(=O)O` [(glc →1α,4)2 glc →1β,6 gal →1α,6 heptadecakis (H-sulfate), h] [(Glc 1α,4)2 glc 1β,6 gal 1α,6 glc heptadecakis (H-sulfate) heptadecasodium salt], in assay [1], the “Shunt Inhibition 036* Wells” value is “+6 Wells”. The “C-Late 035* Wells” value in assay [2] is “+2 Wells”. In addition, the “C1 026* Wells” value on activated human C1 is “+9 Wells”.

Take `O=S(=O)(O)OC[C@H]1O[C@@H](OC[C@H]2O[C@H](OC[C@H]3OC(OS(=O)(=O)O)[C@H](OS(=O)(=O)O)[C@@H](OS(=O)(=O)O)[C@@H]3OS(=O)(=O)O)[C@H](OS(=O)(=O)O)[C@@H](OS(=O)(=O)O)[C@H]2OS(=O)(=O)O)[C@H](OS(=O)(=O)O)[C@@H](OS(=O)(=O)O)[C@@H]1O[C@H]1O[C@H](COS(=O)(=O)O)[C@@H](O[C@H]2O[C@H](COS(=O)(=O)O)[C@@H](O[C@H]3O[C@H](COS(=O)(=O)O)[C@@H](O[C@H]4O[C@H](COS(=O)(=O)O)[C@@H](O[C@H]5O[C@H](COS(=O)(=O)O)[C@@H](O[C@H]6O[C@H](COS(=O)(=O)O)[C@@H](OS(=O)(=O)O)[C@H](OS(=O)(=O)O)[C@H]6OS(=O)(=O)O)[C@H](OS(=O)(=O)O)[C@H]5OS(=O)(=O)O)[C@H](OS(=O)(=O)O)[C@H]4OS(=O)(=O)O)[C@H](OS(=O)(=O)O)[C@H]3OS(=O)(=O)O)[C@H](OS(=O)(=O)O)[C@H]2OS(=O)(=O)O)[C@H](OS(=O)(=O)O)[C@H]1OS(=O)(=O)O` (stereo partly drawn) [(glc →1α,4)6 glc →1β,6 gal →1α,6 glc nonacosakis (H-sulfate)] [(Glc 1α,4)6 glc 1β,6 gal 1α,6 glc nonacosakis (H-sulfate) nonacosasalt with trimethylamine]: the “Shunt Inhibition 036* Wells” value in assay [1] is listed as “+5 Wells”. For the same molecule, the “C-Late 035* Wells” value in assay [2] was “+1 Wells”. Also, the “C1 026* Wells” value at activated human C1 is “+10 Wells”.

As to `O=S(=O)(O)OC[C@H]1O[C@@H](OC[C@H]2O[C@H](OC[C@H]3O[C@H](OS(=O)(=O)O)[C@H](OS(=O)(=O)O)[C@@H](OS(=O)(=O)O)[C@@H]3OS(=O)(=O)O)[C@H](OS(=O)(=O)O)[C@@H](OS(=O)(=O)O)[C@H]2OS(=O)(=O)O)[C@H](OS(=O)(=O)O)[C@@H](OS(=O)(=O)O)[C@@H]1O[C@H]1O[C@H](COS(=O)(=O)O)[C@@H](O[C@H]2O[C@H](COS(=O)(=O)O)[C@@H](OS(=O)(=O)O)[C@H](OS(=O)(=O)O)[C@H]2OS(=O)(=O)O)[C@H](OS(=O)(=O)O)[C@H]1OS(=O)(=O)O` [(glc →1α,4) 2 glc →1β,6 gal →1α,6 heptadecakis (H-sulfate), ] [(Glc 1α,4)2 glc 1β,6 gal 1α,6 glc heptadecakis (H-sulfate) heptadecasalt with trimethylamine], the “C-Late 035* Wells” value in assay [2] is given as “+1 Wells”. Further, the “C1 026* Wells” value on activated human C1 is “+9 Wells”.

As for `O=S(=O)(O)OC[C@H]1O[C@H](OC[C@H]2OC(OS(=O)(=O)O)[C@H](OS(=O)(=O)O)[C@@H](OS(=O)(=O)O)[C@@H]2OS(=O)(=O)O)[C@H](OS(=O)(=O)O)[C@@H](OS(=O)(=O)O)[C@H]1OS(=O)(=O)O` (stereo partly drawn) [Gal 1α,6 glc octakis (H-sulfate), octasodium salt], the “C1 026* Wells” value on activated human C1 was “+8 Wells”.

In the case of `O=S(=O)(O)OC[C@H]1O[C@@H](OC[C@H]2O[C@H](OC[C@H]3O[C@H](OS(=O)(=O)O)[C@H](OS(=O)(=O)O)[C@@H](OS(=O)(=O)O)[C@@H]3OS(=O)(=O)O)[C@H](OS(=O)(=O)O)[C@@H](OS(=O)(=O)O)[C@H]2OS(=O)(=O)O)[C@H](OS(=O)(=O)O)[C@@H](OS(=O)(=O)O)[C@H]1OS(=O)(=O)O` [gal →1β,6 gal →1α,6 glc undecakis -sulfate), undecasalt with] [Gal 1β,6 gal 1α,6 glc undecakis (H-sulfate), undecasalt with trimethylamine], on activated human C1, the “C1 026* Wells” value is reported as “+9 Wells”.

Regarding `O=S(=O)(O)OC[C@H]1O[C@@H](OC[C@H]2O[C@H](OC[C@H]3O[C@H](OS(=O)(=O)O)[C@H](OS(=O)(=O)O)[C@@H](OS(=O)(=O)O)[C@@H]3OS(=O)(=O)O)[C@H](OS(=O)(=O)O)[C@@H](OS(=O)(=O)O)[C@H]2OS(=O)(=O)O)[C@H](OS(=O)(=O)O)[C@@H](OS(=O)(=O)O)[C@H]1OS(=O)(=O)O` [gal →1β,6 gal →1α,6 glc undecakis -sulfate), undecasodium sa] [Gal 1β,6 gal 1α,6 glc undecakis (H-sulfate), undecasodium salt], the “C1 026* Wells” value on activated human C1 was “+9 Wells”.

For `O=S(=O)(O)OC[C@H]1O[C@@H](OC[C@H]2O[C@H](OC[C@H]3OC(OS(=O)(=O)O)[C@H](OS(=O)(=O)O)[C@@H](OS(=O)(=O)O)[C@@H]3OS(=O)(=O)O)[C@H](OS(=O)(=O)O)[C@@H](OS(=O)(=O)O)[C@H]2OS(=O)(=O)O)[C@H](OS(=O)(=O)O)[C@@H](OS(=O)(=O)O)[C@@H]1O[C@H]1O[C@H](COS(=O)(=O)O)[C@@H](OS(=O)(=O)O)[C@H](OS(=O)(=O)O)[C@H]1OS(=O)(=O)O` (stereo partly drawn) [glc →1α,4 glc →1β,6 gal →1α,6 glc tetradecakis (H-sulfate), ] [Glc 1α,4 glc 1β,6 gal 1α,6 glc tetradecakis (H-sulfate), tetradecasalt with trimethylamine], in assay [2], the “C-Late 035* Wells” value is recorded as “+1 Wells”.

As for `O=S(=O)(O)OC[C@H]1O[C@@H](OC[C@H]2O[C@H](OC[C@H]3O[C@H](OS(=O)(=O)O)[C@H](OS(=O)(=O)O)[C@@H](OS(=O)(=O)O)[C@@H]3OS(=O)(=O)O)[C@H](OS(=O)(=O)O)[C@@H](OS(=O)(=O)O)[C@H]2OS(=O)(=O)O)[C@H](OS(=O)(=O)O)[C@@H](OS(=O)(=O)O)[C@@H]1O[C@@H]1O[C@H](COS(=O)(=O)O)[C@@H](OS(=O)(=O)O)[C@H](OS(=O)(=O)O)[C@H]1OS(=O)(=O)O` [glc →1β,4 glc →1β,6 gal →1α,6 glc tetradecakis (H-sulfate), ] [Glc 1β,4 glc 1β,6 gal 1α,6 glc tetradecakis (H-sulfate), tetradecasodium salt], the “C1 026* Wells” value on activated human C1 was “+9 Wells”.

Consider `O=S(=O)(O)OC[C@H]1O[C@@H](OC[C@H]2O[C@H](OC[C@H]3O[C@H](OS(=O)(=O)O)[C@H](OS(=O)(=O)O)[C@@H](OS(=O)(=O)O)[C@@H]3OS(=O)(=O)O)[C@H](OS(=O)(=O)O)[C@@H](OS(=O)(=O)O)[C@H]2OS(=O)(=O)O)[C@H](OS(=O)(=O)O)[C@@H](OS(=O)(=O)O)[C@@H]1O[C@@H]1O[C@H](COS(=O)(=O)O)[C@@H](OS(=O)(=O)O)[C@H](OS(=O)(=O)O)[C@H]1OS(=O)(=O)O` [glc →1β,4 glc →1β,6 gal →1α,6 glc tetradicakis (H-sulfate), ] [Glc 1β,4 glc 1β,6 gal 1α,6 glc tetradecakis (H-sulfate), tetradecasalt with trimethylamine], for which the “Shunt Inhibition 036* Wells” value in assay [1] is “+4 Wells”. At activated human C1, the “C1 026* Wells” value is reported as “+9 Wells”.
